Assay in all cases: Ba/F3 cell viability, Cell Titer Glo
One assay addresses EGFR L718Q (Homo sapiens, UniProt P00533, L718Q). To be noted: read-out: IC50 Values; Ba/F3 cells expressing EGFR L718Q, 72 hours.
The target in the next assay is EGFR L858R/C797S (Homo sapiens, UniProt P00533, C797S/L858R). Particulars: read-out: IC50 Values; Ba/F3 cells expressing EGFR L858R/C797S, 72 hours.
A further assay has as its target EGFR L858R S784F (Homo sapiens, UniProt P00533, L858R/S784F). To be noted: read-out: IC50 Values; Ba/F3 cells expressing EGFR L858R S784F, 72 hours.
For a further assay, the target named is EGFR K754E (Homo sapiens, UniProt P00533, K754E). Particulars: read-out: IC50 Values; Ba/F3 cells expressing EGFR K754E, 72 hours.
The target of another assay is EGFR E709A (Homo sapiens, UniProt P00533, E709A). Particulars: read-out: IC50 Values; Ba/F3 cells expressing EGFR E709A, 72 hours.
For the next assay, the target named is EGFR L858R/T790M/L718Q (Homo sapiens, UniProt P00533, L718Q/L858R/T790M). To be noted: read-out: IC50 Values; Ba/F3 cells expressing EGFR L858R/T790M/L718Q, 72 hours.
The next assay addresses EGFR S768I/T790M (Homo sapiens, UniProt P00533, S768I/T790M). Particulars: read-out: IC50 Values; Ba/F3 cells expressing EGFR S768I/T790M, 72 hours.
The target in the next assay is EGFR V769L (Homo sapiens, UniProt P00533, V769L). To be noted: read-out: IC50 Values; Ba/F3 cells expressing EGFR V769L, 72 hours.
The target of a further assay is EGFR S811F (Homo sapiens, UniProt P00533, S811F). To be noted: read-out: IC50 Values; Ba/F3 cells expressing EGFR S811F, 72 hours.
The target of the next assay is EGFR L747S (Homo sapiens, UniProt P00533, L747S). Particulars: read-out: IC50 Values; Ba/F3 cells expressing EGFR L747S, 72 hours.
The target of another assay is EGFR G724S (Homo sapiens, UniProt P00533, G724S). To be noted: read-out: IC50 Values; Ba/F3 cells expressing EGFR G724S, 72 hours.
The next assay addresses EGFR L858R G796S (Homo sapiens, UniProt P00533, G796S/L858R). Particulars: read-out: IC50 Values; Ba/F3 cells expressing EGFR L858R G796S, 72 hours.
The next assay addresses EGFR S784F (Homo sapiens, UniProt P00533, S784F). Particulars: read-out: IC50 Values; Ba/F3 cells expressing EGFR S784F, 72 hours.
The next assay concerns the target EGFR Ex19del/L792H (Homo sapiens, UniProt P00533, DEL746-750/L792H). Particulars: read-out: IC50 Values; Ba/F3 cells expressing EGFR Ex19del/L792H, 72 hours.
For the next assay, the target named is EGFR G724S T790M (Homo sapiens, UniProt P00533, G724S/T790M). Particulars: read-out: IC50 Values; Ba/F3 cells expressing EGFR G724S T790M, 72 hours.
A further assay addresses EGFR T725M (Homo sapiens, UniProt P00533, T725M). Particulars: read-out: IC50 Values; Ba/F3 cells expressing EGFR T725M, 72 hours.
The next assay addresses EGFR Ex19del/T790M/G724S (Homo sapiens, UniProt P00533, DEL746-750/G724S/T790M). Particulars: read-out: IC50 Values; Ba/F3 cells expressing EGFR Ex19del/T790M/G724S, 72 hours.
For another assay, the target named is EGFR L858R L718Q (Homo sapiens, UniProt P00533, L718Q/L858R). Particulars: read-out: IC50 Values; Ba/F3 cells expressing EGFR L858R L718Q, 72 hours.
A further assay concerns the target EGFR l740duplPVAK (Homo sapiens, UniProt P00533, DUP740-745). Particulars: read-out: IC50 Values; Ba/F3 cells expressing EGFR l740duplPVAK, 72 hours.
Another assay concerns the target EGFR G719A T790M (Homo sapiens, UniProt P00533, G719A/T790M). To be noted: read-out: IC50 Values; Ba/F3 cells expressing EGFR G719A T790M, 72 hours.

The structures appear in SMILES notation.

EGFR L858R L718Q, sequence (P00533 25-1210 L718Q/L858R): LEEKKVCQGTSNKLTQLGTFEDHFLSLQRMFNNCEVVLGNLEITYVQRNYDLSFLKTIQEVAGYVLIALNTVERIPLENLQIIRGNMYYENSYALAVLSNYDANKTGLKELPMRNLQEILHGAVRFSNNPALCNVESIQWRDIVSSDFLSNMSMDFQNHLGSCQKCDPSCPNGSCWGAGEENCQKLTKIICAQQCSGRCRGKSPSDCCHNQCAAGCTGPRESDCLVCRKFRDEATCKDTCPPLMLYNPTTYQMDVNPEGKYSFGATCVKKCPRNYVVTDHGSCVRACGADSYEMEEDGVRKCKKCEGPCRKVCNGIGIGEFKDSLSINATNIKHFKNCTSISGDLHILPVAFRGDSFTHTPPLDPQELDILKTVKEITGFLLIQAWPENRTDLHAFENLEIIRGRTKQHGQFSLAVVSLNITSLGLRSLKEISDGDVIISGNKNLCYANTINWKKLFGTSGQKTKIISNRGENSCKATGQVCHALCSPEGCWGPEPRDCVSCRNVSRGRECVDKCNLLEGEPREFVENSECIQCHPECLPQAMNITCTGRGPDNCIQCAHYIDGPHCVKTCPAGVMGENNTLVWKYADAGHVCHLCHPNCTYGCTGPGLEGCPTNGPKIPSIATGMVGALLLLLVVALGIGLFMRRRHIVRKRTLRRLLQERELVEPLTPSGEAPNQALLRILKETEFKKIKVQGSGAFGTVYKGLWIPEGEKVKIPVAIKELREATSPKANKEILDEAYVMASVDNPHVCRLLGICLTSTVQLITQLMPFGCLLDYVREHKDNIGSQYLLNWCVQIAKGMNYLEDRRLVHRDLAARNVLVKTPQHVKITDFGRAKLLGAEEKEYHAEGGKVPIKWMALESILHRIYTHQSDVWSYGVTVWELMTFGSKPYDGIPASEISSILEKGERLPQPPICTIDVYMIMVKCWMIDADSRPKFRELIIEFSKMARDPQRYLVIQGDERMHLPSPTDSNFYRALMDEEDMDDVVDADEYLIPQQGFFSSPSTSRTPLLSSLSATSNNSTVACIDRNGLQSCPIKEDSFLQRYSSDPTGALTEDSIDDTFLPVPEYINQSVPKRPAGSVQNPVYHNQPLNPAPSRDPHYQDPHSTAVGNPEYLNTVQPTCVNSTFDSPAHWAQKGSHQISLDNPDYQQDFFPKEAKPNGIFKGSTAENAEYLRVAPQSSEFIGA
EGFR V769L, sequence (P00533 25-1210 V769L): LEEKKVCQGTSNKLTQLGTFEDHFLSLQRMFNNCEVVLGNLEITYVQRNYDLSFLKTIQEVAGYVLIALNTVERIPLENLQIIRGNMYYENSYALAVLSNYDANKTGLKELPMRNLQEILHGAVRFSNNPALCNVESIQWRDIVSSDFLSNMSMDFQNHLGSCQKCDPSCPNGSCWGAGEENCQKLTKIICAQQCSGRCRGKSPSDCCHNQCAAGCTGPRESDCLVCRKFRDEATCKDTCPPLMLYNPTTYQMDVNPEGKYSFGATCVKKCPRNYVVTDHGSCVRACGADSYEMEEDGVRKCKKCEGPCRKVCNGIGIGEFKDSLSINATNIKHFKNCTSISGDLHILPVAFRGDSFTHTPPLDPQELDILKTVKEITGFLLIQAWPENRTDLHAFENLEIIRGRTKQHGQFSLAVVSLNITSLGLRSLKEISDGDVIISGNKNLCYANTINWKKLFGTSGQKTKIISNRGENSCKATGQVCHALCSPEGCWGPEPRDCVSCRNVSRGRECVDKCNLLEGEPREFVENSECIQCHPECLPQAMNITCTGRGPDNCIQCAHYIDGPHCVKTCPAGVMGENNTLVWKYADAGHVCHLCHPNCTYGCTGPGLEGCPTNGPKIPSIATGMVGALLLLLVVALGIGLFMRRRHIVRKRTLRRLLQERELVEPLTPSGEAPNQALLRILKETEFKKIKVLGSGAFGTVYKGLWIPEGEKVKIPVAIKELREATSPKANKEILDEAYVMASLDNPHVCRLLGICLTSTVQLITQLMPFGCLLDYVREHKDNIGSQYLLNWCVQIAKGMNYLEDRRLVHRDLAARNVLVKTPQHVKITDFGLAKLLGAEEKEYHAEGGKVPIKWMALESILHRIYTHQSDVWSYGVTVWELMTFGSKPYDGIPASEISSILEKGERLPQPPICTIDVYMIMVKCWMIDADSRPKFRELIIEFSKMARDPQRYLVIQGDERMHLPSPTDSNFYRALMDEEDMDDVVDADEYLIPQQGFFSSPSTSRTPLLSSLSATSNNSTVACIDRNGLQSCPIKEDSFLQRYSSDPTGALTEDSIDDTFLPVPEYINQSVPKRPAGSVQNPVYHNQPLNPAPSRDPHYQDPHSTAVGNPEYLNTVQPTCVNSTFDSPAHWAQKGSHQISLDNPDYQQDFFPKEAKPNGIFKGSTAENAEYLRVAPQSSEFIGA
EGFR K754E, sequence (P00533 25-1210 K754E): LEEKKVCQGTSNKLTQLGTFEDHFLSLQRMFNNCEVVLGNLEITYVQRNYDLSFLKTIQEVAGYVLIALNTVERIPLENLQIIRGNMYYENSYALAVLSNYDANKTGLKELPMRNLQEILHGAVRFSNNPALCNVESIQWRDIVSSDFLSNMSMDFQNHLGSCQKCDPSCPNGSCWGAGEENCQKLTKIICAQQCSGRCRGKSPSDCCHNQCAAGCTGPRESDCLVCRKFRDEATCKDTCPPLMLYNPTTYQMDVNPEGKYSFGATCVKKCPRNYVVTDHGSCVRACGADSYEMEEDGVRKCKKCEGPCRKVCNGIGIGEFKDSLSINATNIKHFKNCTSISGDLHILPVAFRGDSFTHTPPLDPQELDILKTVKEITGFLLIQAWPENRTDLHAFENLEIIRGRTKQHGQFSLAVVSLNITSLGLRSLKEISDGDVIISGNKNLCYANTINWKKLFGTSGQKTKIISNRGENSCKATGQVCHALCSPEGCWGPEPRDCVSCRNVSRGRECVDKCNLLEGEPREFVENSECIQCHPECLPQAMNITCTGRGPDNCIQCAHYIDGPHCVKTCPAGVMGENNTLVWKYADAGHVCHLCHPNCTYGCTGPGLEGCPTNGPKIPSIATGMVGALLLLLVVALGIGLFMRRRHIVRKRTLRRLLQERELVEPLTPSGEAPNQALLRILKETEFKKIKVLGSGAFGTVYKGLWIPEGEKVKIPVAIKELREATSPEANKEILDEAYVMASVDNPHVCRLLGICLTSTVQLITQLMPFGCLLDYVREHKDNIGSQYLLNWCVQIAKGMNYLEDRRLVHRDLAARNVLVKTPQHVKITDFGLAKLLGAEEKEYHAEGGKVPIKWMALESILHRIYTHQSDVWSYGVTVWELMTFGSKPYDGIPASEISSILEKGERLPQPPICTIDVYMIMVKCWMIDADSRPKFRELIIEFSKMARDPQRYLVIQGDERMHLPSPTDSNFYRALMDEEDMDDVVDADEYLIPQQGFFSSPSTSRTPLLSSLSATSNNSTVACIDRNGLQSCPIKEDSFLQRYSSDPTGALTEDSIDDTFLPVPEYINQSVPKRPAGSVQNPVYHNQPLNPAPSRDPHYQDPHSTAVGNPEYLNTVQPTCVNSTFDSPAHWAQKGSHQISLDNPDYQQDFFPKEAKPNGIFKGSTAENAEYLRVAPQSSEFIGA
EGFR G719A T790M, sequence (P00533 25-1210 G719A/T790M): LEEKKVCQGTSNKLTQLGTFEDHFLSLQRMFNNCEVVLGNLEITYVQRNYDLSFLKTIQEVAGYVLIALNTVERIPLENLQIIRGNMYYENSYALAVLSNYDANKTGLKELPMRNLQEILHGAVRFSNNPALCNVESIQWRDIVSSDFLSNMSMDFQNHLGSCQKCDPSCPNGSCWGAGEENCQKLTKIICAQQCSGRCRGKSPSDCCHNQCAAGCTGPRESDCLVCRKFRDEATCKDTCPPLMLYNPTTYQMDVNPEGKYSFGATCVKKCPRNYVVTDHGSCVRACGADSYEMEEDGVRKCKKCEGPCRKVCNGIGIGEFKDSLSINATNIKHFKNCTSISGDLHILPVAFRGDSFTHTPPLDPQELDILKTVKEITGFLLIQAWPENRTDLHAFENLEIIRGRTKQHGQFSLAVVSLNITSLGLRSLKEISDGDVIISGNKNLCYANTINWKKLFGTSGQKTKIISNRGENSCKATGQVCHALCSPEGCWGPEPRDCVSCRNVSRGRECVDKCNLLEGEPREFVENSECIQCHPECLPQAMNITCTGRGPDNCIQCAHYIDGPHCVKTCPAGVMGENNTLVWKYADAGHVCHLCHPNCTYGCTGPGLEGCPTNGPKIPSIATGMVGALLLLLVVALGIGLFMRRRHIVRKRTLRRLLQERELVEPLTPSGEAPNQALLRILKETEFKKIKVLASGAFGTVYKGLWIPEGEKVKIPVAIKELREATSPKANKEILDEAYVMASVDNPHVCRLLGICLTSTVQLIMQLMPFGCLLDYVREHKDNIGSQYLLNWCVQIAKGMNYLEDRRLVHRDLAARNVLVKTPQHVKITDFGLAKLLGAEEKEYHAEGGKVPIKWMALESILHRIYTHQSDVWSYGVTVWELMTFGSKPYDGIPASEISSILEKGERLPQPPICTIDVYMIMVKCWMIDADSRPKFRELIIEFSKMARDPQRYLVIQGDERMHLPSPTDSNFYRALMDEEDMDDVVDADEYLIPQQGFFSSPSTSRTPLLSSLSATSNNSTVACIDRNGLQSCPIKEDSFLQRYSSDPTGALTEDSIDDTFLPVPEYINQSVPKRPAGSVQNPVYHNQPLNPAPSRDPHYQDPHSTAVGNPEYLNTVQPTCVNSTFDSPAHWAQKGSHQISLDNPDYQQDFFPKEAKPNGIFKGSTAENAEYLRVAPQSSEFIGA
Description for EGFR E709A: (§1) Cell viability was determined by the Cell Titer Glo assay.
(§2) Briefly, stable Ba/F3 cell lines were generated by retroviral transduction of Ba/F3 cell line for 12 hours. […] Three days after transduction, 2 μg/ml puromycin (Invitrogen) was added to the RPMI media. Cell lines were then grown in the absence of IL-3 for two weeks and cell viability was assessed every three days using the Cell Titer Glo assay (Progema).
(§3) Briefly, 2000-3000 cells per well were plated in 384-well plates (Greiner Bio-One) in technical triplicate. Cells were treated with seven different concentrations of tyrosine kinase inhibitors or vehicle alone at a final volume of 40 μL per well. After 3 days, 11 μL of Cell Titer Glo was added to each well. Plates were shaken for 15 minutes, and bioluminescence was determined using a FLUOstar OPTIMA multi-mode micro-plate reader (BMG LABTECH). Bioluminescence values were normalized to DMSO treated cells, and normalized values were plotted in GraphPad Prism using non-linear regression fit to normalized data with a variable slope.
Description for EGFR Ex19del/L792H: (§4) The transforming capability of the mutations was then evaluated by sustained cell viability following IL-3 deprivation. Activating EGFR mutant Ba/F3 cells were then screened against EGFR TKIs. Cell viability was determined by the Cell Titer Glo assay.
(§5) Ba/F3 cells expressing acquired atypical mutations spanning exons 18-21 were treated with inhibitors for 72 hours. […] Briefly, stable Ba/F3 cell lines were generated by retroviral transduction of Ba/F3 cell line for 12 hours. […] Three days after transduction, 2 μg/ml puromycin (Invitrogen) was added to the RPMI media. Cell lines were then grown in the absence of IL-3 for two weeks and cell viability was assessed every three days using the Cell Titer Glo assay (Progema).
as §3
Description for EGFR Ex19del/T790M/G724S: as §1, §3
Description for EGFR G719A T790M: as §1, §3
Description for EGFR G724S T790M: as §1, §2, §3
Description for EGFR K754E: as §1, §2, §3
Description for EGFR L718Q: as §1, §2, §3
Description for EGFR L747S: as §1, §2, §3
Description for EGFR L858R G796S: as §4, §5, §3
Description for EGFR L858R L718Q: as §4, §5, §3
Description for EGFR L858R S784F: as §4, §5, §3
Description for EGFR L858R/C797S: as §4, §5, §3
Description for EGFR L858R/T790M/L718Q: as §1, §2, §3
Description for EGFR S768I/T790M: as §1, §3
Description for EGFR S784F: as §1, §2, §3
Description for EGFR S811F: as §1, §2, §3
Description for EGFR T725M: as §1, §2, §3
Description for EGFR V769L: as §1, §2, §3
Description for EGFR l740duplPVAK: as §1, §2, §3

`C=CC(=O)N1CC[C@@H](Oc2nc(Nc3ccc(N4CCC(N5CCN(C)CC5)CC4)cc3)c(C(N)=O)nc2CC)C1` [Naquotinib]: the IC50 at EGFR L718Q is 734 nM; at EGFR L858R/C797S it was 709 nM; on EGFR L858R S784F, 354 nM; at EGFR K754E, 66 nM; on EGFR E709A, 255 nM; on EGFR L858R/T790M/L718Q, 91.8 nM. For the same compound, the 50% inhibitory concentration (IC50) came out at 19.2 nM at EGFR S768I/T790M; 219 nM on EGFR V769L; 173 nM on EGFR S811F; 120 nM at EGFR L747S; 58.1 nM on EGFR G724S; 423 nM on EGFR L858R G796S. In addition, the IC50 at EGFR S784F came to 70.2 nM; on EGFR Ex19del/L792H, 3.94 nM; at EGFR G724S T790M, 18.8 nM; on EGFR T725M, 77.6 nM; at EGFR Ex19del/T790M/G724S, 3.84 nM; at EGFR L858R L718Q, 747 nM. The IC50 came out at 67.7 nM on EGFR l740duplPVAK and 11.7 nM on EGFR G719A T790M.

The values above are taken from US20260240847A1, “COMPOUNDS WITH ANTI-TUMOR ACTIVITY AGAINST CANCER CELLS BEARING TYROSINE KINASE INHIBITOR RESISTANT EGFR MUTATIONS” (BOARD OF REGENTS, THE UNIVERSITY OF TEXAS SYSTEM, priority 2019, published 2026).
